Assay results published in patent EP0720988A1, “Pseudopeptides containing trifluoromethyl substituted 2-azabicyclooctane” (BAYER AG, priority 1995, dated 1996).
Where a name gives a salt, the structure may show the parent alone. Read-outs that look alike come from different tables or passages of the source.

Assays:
HIV-1-Protease [1] = target: T1, HIV-1-Protease (Human immunodeficiency virus type 1 group M subtype B, UniProt P04585); experiment: HIV-specific protease enzyme assay (purified HIV protease, synthetic peptide substrate, RP-HPLC analysis of cleavage products); type: biochemical; conditions: synthetic peptide imitating a Gag precursor cleavage site
T1 construct: Gereinigte HIV-Protease wurde mit synthetischem Peptid

HIV-1-Protease [2] = target: T1, HIV-1-Protease; experiment: as above; type: biochemical; conditions: synthetic peptide imitating a Gag precursor cleavage site, 50% inhibition of protease activity
Text: Es wurde überraschend gefunden, daß die Verbindungen der allgemeinen Formel (I) eine außerordentlich starke Wirkung gegen Retroviren besitzen. Dies wird mit einem HIV-spezifischen Protease-Enzymtest belegt.
Die Ergebnisse der unten aufgeführten Beispiele wurden nach dem in den folgenden Literaturangaben [vgl. Hansen, J., Billich, S., Schulze, T., Sukrow, S. and Mölling, K. (1988), EMBO Journal, Vol, 7, No. 6, pp. 1785 - 1791] beschriebenen HIV-Testsystem ermittelt: Gereinigte HIV-Protease wurde mit synthetischem Peptid, das eine Schnittstelle im Gag-Precursor-Protein imitiert und eine in vivo-Spaltstelle der HIV-Protease darstellt, inkubiert. Die entstandenen Spaltprodukte des synthetischen Peptids wurden über Reverse Phase High Performance Liquid Chromatography (RP-HPLC) analysiert. Die angegebenen IC50-Werte beziehen sich auf die Substanzkonzentration, die unter den oben aufgeführten Testbedingungen eine 50%ige Hemmung der Protease-Aktivität bewirkt.

HIV = HIV infection in cell culture (PBL), suppression of virus-induced syncytia formation; type: cell-based; conditions: 50% suppression of virus-induced syncytia, read between day 3 and 6 after infection
Experimental: HIV-Infektion in Zellkultur
Der HIV-Test wurde mit geringen Modifikationen nach der Methode von Pauwels et al. [vgl. Journal of Virological Methods 20, (1988), 309-321] durchgeführt.
Normale menschliche Blutlymphozyten (PBL's) wurden über Ficoll-Hypaque angereichert und im RPMI 1640, 20% fötales Kälberserum mit Phytohaemagglutinin (90 µg/ml) und Interleukin-2 (40 U/ml) stimuliert. Zur Infektion mit dem in-fektiösen HIV wurden PBL's pelletiert und das Zellpellet wurde anschließend in 1 ml HIV-Virusadsorptionslösung suspendiert und 1 Stunde bei 37°C inkubiert.
Die Virusadsorptionslösung wurde zentrifugiert und das infizierte Zellpellet in Wachstumsmedium aufgenommen, so daß 1 x 10^5 Zellen pro ml eingestellt waren. Die derart infizierten Zellen wurden zu 1 x 10^4 Zellen/Napf in die Näpfe von 96er Mikrotiterplatten pipettiert.
Die erste vertikale Reihe der Mikrotiterplatte enthielt nur Wachstumsmedium und Zellen, die nicht infiziert, aber ansonsten genauso wie oben beschrieben, behandelt worden waren (Zellkontrolle). Die zweite vertikale Reihe der Mikrotiterplatte erhielt nur HIV-infizierte Zellen (Viruskontrolle) in Wachstumsmedium. Die übrigen Näpfe enthielten die erfindungsgemäßen Verbindungen in unterschiedlichen Konzentrationen, ausgehend von den Näpfen der 3. vertikalen Reihe der Mikrotiterplatte, von der die Prüfsubstanzen in 2er Schritten 2^10fach verdünnt wurden.
Die Testansätze wurden so lange bei 37°C inkubiert, bis in der unbehandelten Viruskontrolle die für das HIV typische Syncytienbildung auftrat (zwischen Tag 3 und 6 nach Infektion), die dann mikroskopisch ausgewertet wurde. In der unbehandelten Viruskontrolle resultierten unter diesen Testbedingungen etwa 20 Syncytien, währen die unbehandelte Zellkontrolle keine Syncytien aufwies.
Die IC50-Werte wurden als die Konzentration der behandelten und infizierten Zellen ermittelt, bei der 50% (ca. 10 Syncytien) der virusinduzierten Syncytien durch die Behandlung mit der erfindungsgemäßen Verbindung unterdrückt waren.

[3] = HIV-1-Protease-Inhibition IC50, purified HIV protease
[4] = read-out: PBL IC50, HIV-infected normal human blood lymphocytes (PBL's)
[5] = Human immunodeficiency virus 1, Lymphocyte, 72 h, read-out: PBL IC50, HIV-infected normal human blood lymphocytes (PBL's)
[6] = purified HIV protease, read-out: HIV-1-Protease-Inhibition IC50

Row | SMILES | HIV-1-Protease-Inhibition IC95 (HIV-1-Protease [1]) | further results
1 | NC(=O)C[C@H](NC(=O)c1cnc2ccccc2n1)C(=O)N[C@@H](Cc1ccccc1)[C@H](O)CN1[C@H](C(F)(F)F)C[C@@H]2CCC[C@@H]21 [Beispiel 1] | 1,9 x 10^-10 Mol/l | IC50 (HIV-1-Protease [2]; [3]): 0.018 nM; IC50 (HIV; [4]): 81.7 nM
2 | NC(=O)C[C@H](NC(=O)c1ccc2ccccc2n1)C(=O)N[C@@H](Cc1ccccc1)[C@H](O)CN1[C@H](C(F)(F)F)C[C@@H]2CCC[C@@H]21 [Beispiel 4, (2R,3S)-3-(Chinolin-2-yl-L-asparaginyl)-amino-1-[(S,S,S)-3-trifluormethyl-2-azabicylco[3.3.0]octan-2-yl}-2-hydroxy-4-phenyl-butan Hydrochlorid] | 3,3 x 10^-8 Mol/l | IC50 (HIV-1-Protease [2]; [3]): 0.6 nM; IC50 (HIV; [4]): 22.5 nM
3 | Cc1ccc2nc(C(=O)N[C@@H](CC(N)=O)C(=O)N[C@@H](Cc3ccccc3)[C@H](O)CN3[C@H](C(F)(F)F)C[C@@H]4CCC[C@@H]43)ccc2c1 [Beispiel 10] | 3,1 x 10^-7 Mol/l | –
4 | NC(=O)C[C@H](NC(=O)c1ccc2ccccc2n1)C(=O)N[C@@H](Cc1ccccc1)[C@H](O)CN1[C@H](C(F)(F)F)C[C@@H]2CCC[C@@H]21 [Beispiel 3, (2R,3S)-3-(Chinolin-2-yl-L-asparaginyl)-amino-1-[(S,S,S)-3-trifluormethyl-2-azabicyclo[3.3.0]octan-2-yl}-2-hydroxy-4-phenyl-butan] | 2,2 x 10^-8 Mol/l | IC50 (HIV-1-Protease [2]; [3]): 0.24 nM; IC50 (HIV; [5]): 35 nM
5 | Cc1cc2ncc(C(=O)N[C@@H](CC(N)=O)C(=O)N[C@@H](Cc3ccccc3)[C@H](O)CN3[C@H](C(F)(F)F)C[C@@H]4CCC[C@@H]43)nc2cc1C [Beispiel 8] | 3,2 x 10^-6 Mol/l | –
6 | Cc1cnc(C)c(COC(=O)N[C@@H](CC(N)=O)C(=O)N[C@@H](Cc2ccccc2)[C@H](O)CN2[C@H](C(F)(F)F)C[C@@H]3CCC[C@@H]32)c1 [Beispiel 17] | 3,7 x 10^-5 Mol/l | IC50 (HIV-1-Protease [2]; [6]): 1900 nM
7 | Cc1cc2ncc(C(=O)N[C@@H](CC(N)=O)C(=O)N[C@@H](Cc3ccccc3)[C@H](O)CN3[C@H](C(F)(F)F)C[C@@H]4CCC[C@@H]43)nc2cc1C [Beispiel 9] | 2,6 x 10^-9 Mol/l | –
8 | NC(=O)C[C@H](NC(=O)COc1ccccc1-c1ccccc1)C(=O)N[C@@H](Cc1ccccc1)[C@H](O)CN1[C@H](C(F)(F)F)C[C@@H]2CCC[C@@H]21 [Beispiel 15] | 2,9 x 10^-8 Mol/l | IC50 (HIV-1-Protease [2]; [6]): 2.2 nM
9 | NC(=O)C[C@H](NC(=O)c1cnc2ccccc2n1)C(=O)N[C@@H](Cc1ccccc1)[C@H](O)CN1[C@H](C(F)(F)F)C[C@@H]2CCC[C@@H]21 [Beispiel 2] | 3,6 x 10^-11 Mol/l | IC50 (HIV-1-Protease [2]; read-out: HIV-1-Protease-Inhibition IC50, purified HIV protease): 0.017 nM; IC50 (HIV; [4]): 38.5 nM
10 | NC(=O)C[C@H](NC(=O)c1ccc2cc(Cl)ccc2n1)C(=O)N[C@@H](Cc1ccccc1)[C@H](O)CN1[C@H](C(F)(F)F)C[C@@H]2CCC[C@@H]21 [Beispiel 12] | 3,7 x 10^-9 Mol/l | –
11 | NC(=O)C[C@H](NC(=O)COc1ccccc1-c1ccccc1)C(=O)N[C@@H](Cc1ccccc1)[C@H](O)CN1[C@H](C(F)(F)F)C[C@@H]2CCC[C@@H]21 [Beispiel 14] | 1,8 x 10^-7 Mol/l | IC50 (HIV-1-Protease [2]; [6]): 3.5 nM; IC50 (HIV; [5]): 600 nM
12 | Cc1ccc2nc(C(=O)N[C@@H](CC(N)=O)C(=O)N[C@@H](Cc3ccccc3)[C@H](O)CN3[C@H](C(F)(F)F)C[C@@H]4CCC[C@@H]43)ccc2c1 [Beispiel 11] | 3,6 x 10^-11 Mol/l | –
13 | Cc1c(O)cccc1C(=O)N[C@@H](CC(N)=O)C(=O)N[C@@H](Cc1ccccc1)[C@H](O)CN1[C@H](C(F)(F)F)C[C@@H]2CCC[C@@H]21 [Beispiel 16] | 2,7 x 10^-6 Mol/l | IC50 (HIV-1-Protease [2]; [6]): 200 nM
14 | NC(=O)C[C@H](NC(=O)c1ccc2cc(Cl)ccc2n1)C(=O)N[C@@H](Cc1ccccc1)[C@H](O)CN1[C@H](C(F)(F)F)C[C@@H]2CCC[C@@H]21 [Beispiel 13] | 2,5 x 10^-10 Mol/l | –
